These results are taken from ChEMBL document CHEMBL3596124, “New anti-trypanosomal active tetracyclic iridoid isolated from Morinda lucida Benth” (Bioorg Med Chem Lett, 2015).

The subject of one data set is Caco-2. The data set can be described thus: Cytotoxicity against human Caco2 cells assessed as reduction in cell viability incubated for 48 hrs by MTT assay. The conditions noted are these: Caco-2, 48 h. The class given is functional, cell-based.
For data set [1], the system named is Trypanosoma brucei brucei. Kind of data set: Anti-trypanosomal activity against Trypanosoma brucei brucei GUTat 3.1 bloodstream forms assessed as reduction in parasitemia incubated for 48 hrs by alamar blue assay. The class given is functional, organism-based. Particulars: GUTat 3.1, 48 h. On the technique in general: The colour change of resazurin is a common sign of viable cells or microbes.

Data set [2] can be described thus: Selectivity index, ratio of IC50 for human Jurkat cells to IC50 for Trypanosoma brucei brucei GUTat 3.1 bloodstream forms. The class given is functional.
A short description of data set [3]: Cytotoxicity against human HF19 cells assessed as reduction in cell viability incubated for 48 hrs by MTT assay. Format: cell-based. The conditions noted are these: HF19, 48 h. Background: Tetrazolium dyes change colour on reduction, which living cells bring about.
Data set [4] can be described thus: Cytotoxicity against human KATO III cells assessed as reduction in cell viability incubated for 48 hrs by MTT assay. Format: functional, cell-based.
In the next data set the test system is HCT-15. The data set can be described thus: Cytotoxicity against human HCT15 cells assessed as reduction in cell viability incubated for 48 hrs by MTT assay. Format: functional, cell-based. Particulars: HCT-15, 48 h.
Data set [5] in a line: Selectivity index, ratio of IC50 for human LoVo cells to IC50 for Trypanosoma brucei brucei GUTat 3.1 bloodstream forms. The class given is functional.
Data set [6] is described as follows: Selectivity index, ratio of IC50 for human Caco2 cells to IC50 for Trypanosoma brucei brucei GUTat 3.1 bloodstream forms. Format: functional, Caco-2.
Data set [7] is described as follows: Cytotoxicity against human NB1RGB cells assessed as reduction in cell viability incubated for 48 hrs by MTT assay. Format: cell-based.
Data set [8] is described as follows: Selectivity index, ratio of IC50 for human KATO III cells to IC50 for Trypanosoma brucei brucei GUTat 3.1 bloodstream forms. Format: functional, KATO III cell.
The test system of another data set is Jurkat. The data set can be described thus: Cytotoxicity against human Jurkat cells assessed as reduction in cell viability incubated for 48 hrs by MTT assay. The class given is functional, cell-based.
In the next data set the test system is HL-60. The data set can be described thus: Cytotoxicity against human HL60 cells assessed as reduction in cell viability incubated for 48 hrs by MTT assay. Particulars: HL-60, 48 h. The class given is functional, cell-based.
The test system of the next data set is THP-1. The data set can be described thus: Cytotoxicity against human THP1 cells assessed as reduction in cell viability incubated for 48 hrs by MTT assay. Particulars: THP-1, 48 h. Format: functional, cell-based.
The nature of data set [9]: Selectivity index, ratio of IC50 for human U937 cells to IC50 for Trypanosoma brucei brucei GUTat 3.1 bloodstream forms. Format: functional, U-937.
For the next data set, the system named is U-937. The data set can be described thus: Cytotoxicity against human U937 cells assessed as reduction in cell viability incubated for 48 hrs by MTT assay. The class given is functional, cell-based. Particulars: U-937, 48 h.
Data set [10] can be described thus: Selectivity index, ratio of IC50 for human HCT15 cells to IC50 for Trypanosoma brucei brucei GUTat 3.1 bloodstream forms. Format: functional, HCT-15.
Data set [11] in a line: Selectivity index, ratio of IC50 for human NB1RGB cells to IC50 for Trypanosoma brucei brucei GUTat 3.1 bloodstream forms. Format: toxicity, cell-based. Particulars: read-out: Ratio IC50.
The nature of data set [12]: Selectivity index, ratio of IC50 for human HL60 cells to IC50 for Trypanosoma brucei brucei GUTat 3.1 bloodstream forms. The class given is functional, HL-60.
The test system of another data set is LoVo. The data set can be described thus: Cytotoxicity against human LoVo cells assessed as reduction in cell viability incubated for 48 hrs by MTT assay. Format: functional, cell-based.
A short description of data set [13]: Selectivity index, ratio of IC50 for human THP1 cells to IC50 for Trypanosoma brucei brucei GUTat 3.1 bloodstream forms. The class given is functional, THP-1.
A short description of data set [14]: Selectivity index, ratio of IC50 for human HF19 cells to IC50 for Trypanosoma brucei brucei GUTat 3.1 bloodstream forms. The class given is toxicity, cell-based. The conditions noted are these: read-out: Ratio IC50.

SMILES strings stand for the structures.

For the compound `COC(=O)C1=CO[C@@H]2O[C@H]3/C(=C\c4ccc(O)c(OC)c4)C(=O)O[C@]34C=C[C@H]1[C@H]24`, the half-inhibitory concentration (IC50) was found to be 1350 nM with Caco-2; 1270 nM in data set [1]; 12.1 µM in [3]; 210 nM in [4]; 16 µM in the data set with HCT-15; 6.01 µM in data set [7]. Further, the half-maximal inhibitory concentration (IC50) was found to be 2450 nM in the data set with Jurkat; 3.87 µM with HL-60; 6.98 µM in the data set on THP-1; 4.08 µM with U-937; 110 nM with LoVo. Besides, the “Ratio IC50” value in data set [2] amounted to 1.93; in data set [5], 0.09; in data set [6], 1.06; in [8], 0.17; in [9] it was 3.21; in [10], 12.63. Also, the “Ratio IC50” value in data set [12] was found to be 3.05; in data set [13] it was 5.5. Moreover, the selectivity ratio in data set [11] was 4.73; in data set [14], 9.54.

In general, IC50 refers to the concentration that inhibits the measured activity by half.
